From patent publication US11400106B2, “Methods for inhibiting microbe growth” (priority 2018, dated 2022)

Assays:
Pseudomonas aeruginosa = test: MIC determination against Pseudomonas aeruginosa; format: cell-based
Experimental: (§1) In the following experiments, bacterial cells were cultured in 96-well microtiter plates in cation-adjusted Mueller-Hinton Broth (MHB) for 18 h at 37° C. The main strains used were E. coli (K-12 BW25113) (placed in stationary incubator) and S. aureus (Newman Strain) (incubated at 250 r.p.m). Knockout strains (ΔtolcC and ΔychM) were used from the Keio knockout collection (Baba et al., Construction of Escherichia coli K-12 in-frame, single-gene knockout mutants: the Keio collection. Mol Syst Biol 2, 2006 0008, doi:10.1038/msb4100050 (2006)). For MIC determination and checkerboard analyses, Clinical & Laboratory Standards Institute (CLSI) protocol was used. […] DiSC3 loading of S. aureus cells was performed as previously described (Farha et al., Collapsing the proton motive force to identify synergistic combinations against Staphylococcus aureus. Chemistry & biology 20, 1168-1178, doi:10.1016/j.chembiol.2013.07.006 (2013)). CCCP concentration of 20 μM was used. pH adjustments were made by addition of HCl or NaOH. INT assay and ATP bioluminescence assays were performed as previously described (Farha et al., Collapsing the proton motive force to identify synergistic combinations against Staphylococcus aureus. Chemistry & biology 20, 1168-1178, doi:10.1016/j.chembiol.2013.07.006 (2013)). For chemical-genomic studies, the Keio library was grown overnight in cation-adjusted MHB broth, in 384-well plates. From these, treatment plates (25 mM sodium bicarbonate, or a sterile water control) were inoculated and grown for 15 hours at 37° C., in a stationary incubator. Data was normalized according to Mangat et al (Mangat et al., Rank ordering plate data facilitates data visualization and normalization in high-throughput screening. J Biomol Screen 19, 1314-1320, doi:10.1177/1087057114534298 (2014)), with gene products and GO terms mined from EcoCyc. […]

E. coli [1] = conditions: 25 mM sodium bicarbonate
Experimental: (§2) In the following experiments, bacterial cells were cultured in 96-well microtiter plates in cation-adjusted Mueller-Hinton Broth (MHB) for 18 h at 37° C. The main strains used were E. coli (K-12 BW25113) (placed in stationary incubator) and S. aureus (Newman Strain) (incubated at 250 r.p.m). Knockout strains (ΔtolcC and ΔychM) were used from the Keio knockout collection (Baba et al., Construction of Escherichia coli K-12 in-frame, single-gene knockout mutants: the Keio collection. Mol Syst Biol 2, 2006 0008, doi:10.1038/msb4100050 (2006)). For MIC determination and checkerboard analyses, Clinical & Laboratory Standards Institute (CLSI) protocol was used. […] DiSC3 loading of S. aureus cells was performed as previously described (Farha et al., Collapsing the proton motive force to identify synergistic combinations against Staphylococcus aureus. Chemistry & biology 20, 1168-1178, doi:10.1016/j.chembiol.2013.07.006 (2013)). CCCP concentration of 20 μM was used. pH adjustments were made by addition of HCl or NaOH. INT assay and ATP bioluminescence assays were performed as previously described (Farha et al., Collapsing the proton motive force to identify synergistic combinations against Staphylococcus aureus. Chemistry & biology 20, 1168-1178, doi:10.1016/j.chembiol.2013.07.006 (2013)). For chemical-genomic studies, the Keio library was grown overnight in cation-adjusted MHB broth, in 384-well plates. From these, treatment plates (25 mM sodium bicarbonate, or a sterile water control) were inoculated and grown for 15 hours at 37° C., in a stationary incubator. Data was normalized according to Mangat et al (Mangat et al., Rank ordering plate data facilitates data visualization and normalization in high-throughput screening. J Biomol Screen 19, 1314-1320, doi:10.1177/1087057114534298 (2014)), with gene products and GO terms mined from EcoCyc. The GFP promoter library (Keseler et al., EcoCyc: fusing model organism databases with systems biology. Nucleic Acids Res 41, D605-612, doi:10.1093/nar/gks1027 (2013)) was grown for 18 hours at ambient temperature with the same inoculation strategy as with the Keio collection. The analysis pipeline of Zaslaver et al (Zaslaver et al., A comprehensive library of fluorescent transcriptional reporters for Escherichia coli. Nat Methods 3, 623-628, doi:10.1038/nmeth895 (2006)) was used to generate maps of promoter activity, from which lists of promoters with increased or decreased activity were compiled.

S. aureus [2] = conditions: S. aureus grown with 25 mM sodium bicarbonate vs untreated
Experimental: as §2

Enterococcus faecium = system: Enterococcus faecium
Experimental: as §2

Klebsiella pneumoniae = test: MIC determination against Klebsiella pneumoniae; format: cell-based
Experimental: as §1

E. coli [3] = test: microbe, parasite or virus in culture; format: cell-based, Escherichia coli
S. aureus [4] = conditions: 25 mM sodium bicarbonate, BCECF-AM
Experimental: S. aureus cells were loaded with the pH sensitive dye BCECF-AM and were washed and resuspended in PBS. Following baseline readings, PBS (grey circles) or 25 mM sodium bicarbonate (black circles) were added at the arrow and fluorescence measured over time. A standard curve for intracellular pH calibration was used to calculate intracellular pH.

S. aureus [5] = test: FIC index of pentamidine combined with various salts (checkerboard); format: cell-based, Staphylococcus aureus; conditions: combination of pentamidine isethionate with each salt; FICI≤0.5 synergy, 1-2 additivity, >4 antagonism
Experimental: as §2

Acinetobacter baumannii = test: MIC determination against Acinetobacter baumannii; format: cell-based; conditions: Acinetobacter baumannii
Experimental: as §2

S. aureus [6] = test: microbe, parasite or virus in culture; conditions: Staphylococcus aureus

O=C([O-])O.[Na+] [Sodium bicarbonate]
MIC (Pseudomonas aeruginosa): >100 mM | reduction of intracellular ATP levels compared to untreated control (E. coli [1]): ~30% | reduction of cellular respiration (E. coli [1]; INT to INT-formazan, 60 min): 70% | uptake of DiSC3(5) (S. aureus [2]): increased uptake | MIC (Enterococcus faecium): 50 to 100 mM | MIC (Klebsiella pneumoniae): 100 mM | MIC of dirithromycin in the presence of the salt (E. coli [3]; E. coli, salt at 25 mM, pH adjusted to 7.4): 4 µg/mL | MIC (E. coli [3]; Escherichia coli): 100 mM | change in cytoplasmic pH (S. aureus [4]): rapid cytoplasmic alkalinization | FIC Index (with pentamidine in S. aureus) (S. aureus [5]): 0.31 | MIC (Acinetobacter baumannii): 50 mM | MIC (S. aureus [6]): 50 to 100 mM
